These results are taken from patent US9802897B2, “Amidopyridinol derivative or pharmaceutically acceptable salt thereof and pharmaceutical composition comprising same as active component” (Research Cooperation Foundation of Yeungnam University, priority 2013, dated 2017).

Marks after values point to notes of the source that are not given here. Non-standard residues stand in square brackets, D forms with d. Residues, ends and D or L forms follow the SMILES beside them. *: point of attachment. Sta = CC(C)C[C@H](N)[C@@H](O)CC(=O)O; Isovaleryl = CC(C)CC(=O)*; Cbz = O=C(OCc1ccccc1)*; CH2F = FC*

Experiment [1] relates to MDA-MB-231 cells. Put plainly: Transwell invasion assay of MDA-MB-231 breast cancer cells. It counts as cell-based. To be noted: for invasion of MDA-MB-231 cells (in words): cathepsin inhibitors vs cells not treated with inhibitors. Here is the method:
The invasion assay was performed by using the transwell insert (BD FALCON, Bedford, USA) equipped with a 8 μm pore-sized filter. An upper part of the transwell insert filter was coated with 20 μl of matrigel (1 mg/ml) while a bottom part of the same was coated with 30 μl of type I collagen (0.5 mg/ml). The MDA-MB-231 cells (5×10^5 cells/100 μl) were added to the insert chamber, and then, each inhibitor was also added thereto. To induce invasion of the cells, a medium supplemented with 5% FBS was added to each well of the bottom chamber to allow a reaction at a temperature of 37° C. in a cell incubator. 18 hours later, the cells remained after removing the solution in the insert chamber were removed by using a cotton swab, whereas cells at the bottom of the membrane were fixed with methanol and stained with hematoxylin and eosin. The cells present at the membrane were observed through a microscope, and the number of the cells was counted in the selected 5 fields at the resolution of 200×.
According to the same manner as in Experimental Example 7, inhibitory effects of the amidopyridinol derivatives synthesized in Examples above on invasion of breast cancer cells, e.g., MDA-MB-231, were reviewed. Here, to compare with, inhibitory effects of aminopyridinol derivatives, e.g., 6-amino-2,4,5-trimethylpyridine-3-ol (BJ-1101) and 6-diphenylamino-2,4,5-trimethylpyridine-3-ol (BJ-1201), on invasion of breast cancer cells, e.g., MDA-MB-231, were reviewed.

Experiment [2] has as its system VEGF-induced angiogenesis in chicken chorioallantoic membrane (CAM). Put plainly: CAM analysis of VEGF-induced angiogenesis. The following applies: VEGF (20 ng/CAM) + Compound (0.01 nmol/CAM), number of blood vessels after 3 days; for inhibition in vivo at 0.01 nmol/CAM: Gallus gallus, 72 h, read-out: Inhibitory rates (%). It counts as in vivo. How it is done:
To confirm inhibitory effects on angiogenesis through in vivo experiments, the chorioallantoic membrane (CAM) analysis was carried out (refer to Nguyen M et al., Microvascular Res., 47, pp 31-40, 1994). A fertilized egg of a chicken was cultured in conditions maintaining a temperature of 37° C. and relative humidity of 55%. On the 10th day of the culturing, a first small hole was made on an air sac part using a hypodermic needle (Green Cross Medical Corp., Korea), and then, a second hole was made on a flat part of the fertilized egg to make a window thereon. Air was removed through the first hole, i.e., the air sac part, and accordingly, the CAM was separated from the shell of the fertilized egg. Then, a grinding wheel (Multipro 395JA, Dremel, Mexico) was used to cut the air sac part, thereby making a window thereon. Next, the whatman filter disk #1 (Whatman Company, USA) was treated with 3 mg/mL of cortisone acetate, dried, and then, wet by VEGF at a concentration of 20 ng/CAM. The filter disk was placed on blood vessels through the window, and then, compounds prepared according to Examples above were each dissolved in DMSO, diluted with PBS, and then, treated for each concentration. After 3 days of treating the compounds, the CAM part on which the filter disk was placed was isolated, and then, washed with PBS. The Stemi SV6 stereomicroscope (Carl Zeiss, Germany) and the Image-Pro Plus software (Media Cybernetics; Silver Spring, Md., USA) were used to capture images of the CAM part, so as to measure the number of the blood vessels and to analyze data obtained therefrom.

For experiment [3], the system named is HT-29 cells / U937 cells. Put plainly: TNF-α-induced adhesion of HT-29 intestinal epithelial cells and U937 mononuclear cells. The format is cell-based, human. The following applies: 1 μM, pre-treated 1 hour, TNF-α 10 ng/ml; for inhibition at 1 µM: Homo sapiens, read-out: Inhibitory rates (%). Here is the method:
HT-29 cells were cultured in a 24-well plate at a concentration of […] cells/cm^2, and meanwhile, amidopyridinol compounds 8a to 8z were pre-treated for 1 hour at each concentration in a serum-free medium supplemented only with 1% PS. Next, 10 ng/ml of TNF-α was treated therewith to allow a reaction at a temperature of 37° C. for 3 hours. After the completion of the reaction, the medium of the HT-29 cells was removed, and then, the HT-29 cells were washed with PBS once. Afterwards, U937 cells, which were treated and reacted with 10 μg/mL of BCECF-AM at a temperature of 37° C. for 30 minutes, were allowed to react with the HT-29 cells at temperature of 37° C. for 1 hour. Then, to remove U937 cells that were not adhered to the HT-29 cells, the reacted cells were washed with PBS twice. In terms of cell dissolution, 0.1% Triton X-100 in 0.1M Tris was allowed to react with the cells for 30 minutes at room temperature, and then, the cells were subjected to quantify by measuring fluorescence thereof using the Fluostar optima microplate reader (BMG Labtechnologies, Germany).

Experiment [4] relates to A549 lung cancer cells. Put plainly: CAM inoculated with A549 lung cancer cells: angiogenesis and tumor growth. The format is in vivo, chicken. The following applies: A549 on CAM, 5 days. Here is the method: To confirm inhibitory effects on angiogenesis through in vivo experiments, the CAM analysis was carried out (refer to Nguyen M et al., Microvascular Res., 47, pp 31-40, 1994). A fertilized egg of a chicken was cultured in conditions maintaining a temperature of 37° C. and relative humidity of 55%. On the 9th day of the culturing, a first small hole was made on an air sac part using a hypodermic needle (Green Cross Medical Corp., Korea), and then, a second hole was made on a flat part of the fertilized egg to make a window thereon. Air was removed through the first hole, i.e., the air sac part, and accordingly, the CAM was separated from the shell of the fertilized egg. Then, a grinding wheel (Multipro 395JA, Dremel, Mexico) was used to cut the air sac part, thereby making a window thereon. Meanwhile, A549 lung cancer cells were mixed with matrigel at a ratio of 1:1, and then, the mixture was treated with Compounds 8a, 8b, and 8g, respectively, followed by being inoculated at a density of 1.5×10^6 cells/CAM.
After 5 days of the inoculation, the CAM part on which tumors were formed was isolated, and then, washed with PBS. The Stemi SV6 stereomicroscope (Carl Zeiss, Germany) and the Image-Pro Plus software (Media Cybernetics; Silver Spring, Md., USA) were used to capture images of the CAM part, so as to measure the number of the blood vessels and to analyze data obtained therefrom.

Where [5] appears, read: 1 μM, MDA-MB-231 invasion, 5% FBS, 18 hours.

In the case of `CCCNC(=O)[C@H]1O[C@@H]1C(=O)N[C@H](C(=O)N1CCC[C@H]1C(=O)OC)[C@@H](C)CC` [CA-074 Me], the “Inhibition rates (%)” value in experiment [1] (1 nM, MDA-MB-231 invasion, 5% FBS, 18 hours) came out at 19.73 ± 2.31 %; in experiment [1] (5 nM, MDA-MB-231 invasion, 5% FBS, 18 hours), 34.26 ± 2.30 %; in experiment [1] (25 nM, MDA-MB-231 invasion, 5% FBS, 18 hours), 44.45 ± 1.43 %. In addition, in experiment [1], the “invasion of MDA-MB-231 cells (in words)” value is given as “decreased invasion of the cells”.
Consider `Cc1nc(NC(=O)CC(C)C)c(C)c(C)c1O` [Compound 8e, N-(5-hydroxy-3,4,6-trimethylpyridine-2-yl)-3-methylbutanamide], for which the inhibition in vivo at 0.01 nmol/CAM in experiment [2] was 75.6 ± 8.9%. The inhibition at 1 µM in experiment [3] came out at 64.2%.
On to `Cc1nc(NC(=O)C2CCCCC2)c(C)c(C)c1O` [Compound 8h, N-(5-hydroxy-3,4,6-trimethylpyridine-2-yl)cyclohexane carboxamide], for which the inhibition in vivo at 0.01 nmol/CAM in experiment [2] worked out at 76.3 ± 7.2%. The inhibition at 1 µM in experiment [3] was determined as 64.5%.
`Cc1nc(NC(=O)Cc2ccccc2)c(C)c(C)c1O` [Compound 8i, N-(5-hydroxy-3,4,6-trimethylpyridine-2-yl)-2-penylacetamide]: the “Inhibitory rates (%)” value in experiment [2] was 69.6 ± 11.0 %; in experiment [3] it was 56.6* %.
For the compound `Cc1nc(NC(=O)c2ccccc2)c(C)c(C)c1O` [Compound 8k, N-(5-hydroxy-3,4,6-trimethylpyridine-2-yl)benzamide], in experiment [2], the inhibition in vivo at 0.01 nmol/CAM worked out at 77.3 ± 13.1%. In experiment [3], the inhibition at 1 µM amounted to 18.5%.
The matching figures for `COc1ccc(C(=O)Nc2nc(C)c(O)c(C)c2C)cc1` [Compound 8m, N-(5-hydroxy-3,4,6-trimethylpyridine-2-yl)-4-methoxybenzamide]: 69.7 ± 4.5% and 13.9%.
In the same order, the values of `Cc1nc(NC(=O)c2ccc3c(c2)OCO3)c(C)c(C)c1O` [Compound 8o, N-(5-hydroxy-3,4,6-trimethylpyridine-2-yl)benzo[d][1,3]dioxol-5-carboxamide] are 64.8 ± 17.4% and 40.2%.
Consider `Cc1nc(NC(=O)c2cccc(O)c2)c(C)c(C)c1O` [Compound 8v, 3-hydroxy-N-(5-hydroxy-3,4,6-trimethylpyridine-2-yl)benzamide], for which, in experiment [3], the inhibition at 1 µM stood at 54.1%.
On the same count and under the same terms, the figure for `Cc1nc(NC(=O)CC(C)CC(C)(C)C)c(C)c(C)c1O` (centres unmarked) [Compound 8w, N-(5-hydroxy-3,4,6-trimethylpyridine-2-yl)-3,5,5-trimethylhexanamide] is 54.5%; for `Cc1nc(NC(=O)Cc2ccc(Cl)cc2)c(C)c(C)c1O` [Compound 8x, 2-(4-chlorophenyl)-N-(5-hydroxy-3,4,6-trimethylpyridine-2-yl)acetamide] it is 41.5%.
On the same count and under the same terms, the same measure for `Cc1nc(NC(=O)C(Cl)Cl)c(C)c(C)c1O` [Compound 8y, 2,2-dichloro-N-(5-hydroxy-3,4,6-trimethylpyridine-2-yl)acetamide]: 60.6%.
For the compound `Cc1nc(NC(=O)C=Cc2ccccc2)c(C)c(C)c1O` [Compound 8z, N-(5-hydroxy-3,4,6-trimethylpyridine-2-yl)cinnamide], the “Inhibitory rates (%)” value in experiment [3] is listed as 25.2%.
In the case of `CC(C)(F)C[C@H](N[C@@H](c1ccc(-c2ccc(S(C)(=O)=O)cc2)cc1)C(F)(F)F)C(=O)NC1(C#N)CC1` [Odanacatib], the inhibition at 0.04 µM in experiment [1] (Homo sapiens, 0.04 μM, MDA-MB-231 invasion, 5% FBS, 18 hours, read-out: Inhibition rates (%)) came to 14.9 ± 4.14%. The inhibition at 0.2 µM in experiment [1] (Homo sapiens, 0.2 μM, MDA-MB-231 invasion, 5% FBS, 18 hours, read-out: Inhibition rates (%)) was 19.9 ± 3.77%. In addition, the inhibition at 1 µM in experiment [1] (Homo sapiens, 1 μM, MDA-MB-231 invasion, 5% FBS, 18 hours, read-out: Inhibition rates (%)) was 22.3 ± 3.7%.
With `CC(C)CC(=O)N[C@H](C(=O)N[C@H](C(=O)N[C@@H](CC(C)C)[C@@H](O)CC(=O)N[C@@H](C)C(=O)N[C@@H](CC(C)C)[C@@H](O)CC(=O)O)C(C)C)C(C)C` [Pepstatin A] (Isovaleryl-VV[Sta]A[Sta]-OH), the “Inhibition rates (%)” value is listed as 3.42 ± 0.42% in experiment [1] (setting [5]); 4.04 ± 0.33% in experiment [1] (5 μM, MDA-MB-231 invasion, 5% FBS, 18 hours); 5.54 ± 0.77% in experiment [1] (25 μM, MDA-MB-231 invasion, 5% FBS, 18 hours).
As for `CN(C)c1ccc(/C=C2\C(=O)Nc3ccccc32)cc1` [SU4312, reference compound], in experiment [2], the “Inhibitory rates (%)” value stood at 74.6 ± 8.5 %. For the same compound, the figures for the “Inhibition rates of angiogenesis (%)” value in experiment [4] (0.01 pmol/CAM), in experiment [4] (0.1 pmol/CAM) and in experiment [4] (1.0 pmol/CAM) were 20.8 ± 1.4 %, 25.1 ± 2.8 % and 36.2 ± 1.9 %, respectively. Further, the “Inhibition rates of tumor growth (%)” value in experiment [4] (0.01 pmol/CAM) stood at 16.2 ± 20.4%; in experiment [4] (0.1 pmol/CAM) it was 23.4 ± 9.3%; in experiment [4] (1.0 pmol/CAM) it was 26.8 ± 4.9%.
`O=C(NC(Cc1ccccc1)C(=O)NC(Cc1ccccc1)C(=O)CF)OCc1ccccc1` (stereo not drawn) [Z-FF-FMK] (Cbz-Phe-Phe-CH2F; configuration not given here): the “Inhibition rates (%)” value in experiment [1] (0.04 μM, MDA-MB-231 invasion, 5% FBS, 18 hours) was found to be 3.42 ± 2.08%; in experiment [1] (0.2 μM, MDA-MB-231 invasion, 5% FBS, 18 hours), 6.97 ± 2.35%; in experiment [1] (setting [5]) it was 10.16 ± 2.16 %.
On to `CC(C)C[C@H](NC(=O)[C@H](Cc1ccccc1)NC(=O)OCc1ccccc1)C(=O)C=O` [Z-FL-COCHO], for which the “Inhibition rates (%)” value came to 34.36 ± 3.00 % in experiment [1] (0.4 nM, MDA-MB-231 invasion, 5% FBS, 18 hours); 44.67 ± 2.61 % in experiment [1] (2 nM, MDA-MB-231 invasion, 5% FBS, 18 hours); 50.12 ± 2.76 % in experiment [1] (10 nM, MDA-MB-231 invasion, 5% FBS, 18 hours). For the same compound, the “invasion of MDA-MB-231 cells (in words)” value in experiment [1] is on record as “decreased invasion of the cells”.
